Measurements: US20230114107A1, “COMBINATION ANTI-CANCER THERAPIES WITH INDUCERS OF IRON-DEPENDENT CELLULAR DISASSEMBLY” (Flagship Pioneering Innovations V, Inc., priority 2019, published 2023)

Key:
[1] = test system: NFkB reporter in THP1 monocytes; experiment: Screen for innate immune activation: NFkB reporter in THP1 monocytes added to drug-treated HT-1080 cells; type: cell-based, human; conditions: final compound concentration of 10 PM; reporter read 48h after THP-1 addition; FIG. 17
Method: Over 100 FDA-approved anticancer drugs and 6 inducers of ferroptosis were evaluated for their ability to induce innate immune activation, as measured by induction of an NFkB reporter in THP1 monocytes in vitro. The source of the approved anticancer drug compounds was plate Approved Oncology Drug (AOD) IX, available from the National Cancer Institute, Division of Cancer Treatment and Diagnosis (dtp.cancer.gov/organization/dscb/obtaining/available_plates.htm). Briefly, 20,000-30,000 HT-1080 cells were plated per well in 96 well plates, and 10 μl each of compounds from the AOD IX plates were added to each well, for a final compound concentration of 10 PM. The six inducers of ferroptosis listed above were also included in the experiment, as a comparison. After addition of the drug, cells were incubated overnight, and 50,000 THP-1 reporter cells were added to each well on the following day. Reporter induction was measured by colorimetry 48h after reporter cell addition.

[2] = test system: NFKB reporter in THP1-Dual cells; experiment: NFKB reporter activity in THP1-Dual monocytes co-cultured with treated HT1080 cells; type: cell-based, human
Method: HT1080 fibrosarcoma cells were treated with either control (DMSO) or various doses of Erastin, piperazine erastin (PE), or imidazole ketoerastin (IKE) for 24 hours prior to co-culture with THP1-Dual cells for an additional 24 hours. Erastin was purchased from Selleckchem (Houston, Tex.) and dissolved in DMSO. Subsequently, the THP1 supernatants were assessed for nuclear factor kappa-light-chain-enhancer of activated B cells (NFKB) or interferon regulatory factor (IRF) reporter activity.
HT1080 cells were acquired from ATCC and THP1-Dual cells were acquired from InvivoGen (San Diego, Calif.). THP1-Dual cells are human monocyte cells that induce reporter proteins upon activation of either NFKB or IRF pathways. Both cell types were cultured in 96-well plates for the duration of the assay. HT1080 cells were cultured in DMEM with 10% FBS, and THP1-Dual cells were cultured in RPMI with 10% FBS. 7,500 HT1080 cells were plated 24 hours prior to dosing with Erastin, PE, or IKE, with a final DMSO concentration of 0.5%. 24 hours post-treatment, THP1-Dual cells (25,000 cells/well) were added to the HT1080 cells. 24 hours later, 30 μl of supernatant was mixed with either 200 μl QuantiBlue (InvivoGen, San Diego, Calif.) (for NFKB reporter activity) or 50 μl QuantiLuc (for IRF reporter activity) and absorbance or luminescence was recorded on a Molecular Devices plate reader.
HT1080 fibrosarcoma cells were treated with various doses of Erastin (e.g. […], 0.16, 0.31, 0.63, 1.25, 2.5, 5, 10 or 20 μM) alone or in combination with a ferroptosis inhibitor (1 μM Ferrostatin-1, 1 μM Liproxstatin-1, 100 μM Trolox, 25 μM β-Mercaptoethanol or 100 μM Deferoxamine) for 24 hours prior to co-culture with THP1-Dual cells for an additional 24 hours. Ferrostatin-1 and Liproxstatin-1 were purchased from Selleckchem (Houston, Tex.) and dissolved in DMSO. Trolox was purchased from Cayman Chemical Company Inc and resuspended in DMSO. […] Subsequently, the THP1 supernatant was assessed for NFKB activity. […]
HT1080 fibrosarcoma cells were treated with various doses of Erastin (ferroptosis inducer), docetaxel (apoptosis inducer) or H2O2 (necrosis inducer) for 24 hours prior to co-culture with THP1-Dual cells for an additional 24 hours. […] Subsequently, the THP1 supernatants were assessed for nuclear factor kappa-light-chain-enhancer of activated B cells (NFKB).
HT1080 cells were acquired from ATCC and THP1-Dual cells were acquired from InvivoGen (San Diego, Calif.). […] 24 hours later, 30 μl of supernatant was mixed with either 200 μl QuantiBlue (InvivoGen, San Diego, Calif.) (for NFKB reporter activity) or 50 μl QuantiLuc (for IRF reporter activity) and absorbance or luminescence was recorded on a Molecular Devices plate reader.

[3] = test system: HT1080 fibrosarcoma cells; experiment: Viability of HT1080 fibrosarcoma cells after 24 h treatment; type: cell-based; conditions: various doses
[4] = test system: NFKB reporter in THP1-Dual cells; experiment: NFKB reporter activity in THP1-Dual monocytes co-cultured with treated A20 cells; type: cell-based, human; conditions: for NFKB activity in THP1 cells, dose dependence: A20 lymphoma cells treated with GPX4 inhibitor, FIG. 10B, 11B, 12B
Method: A20 B-cell leukemia cells were treated with either control (DMSO) or various doses of RSL3, for 24 hours prior to co-culture with THP1-Dual cells for an additional 24 hours. RSL3 was purchased from Selleckchem (Houston, Tex.) and dissolved in DMSO. Subsequently, the THP1 supernatants were assessed for NFKB or IRF reporter activity.
A20 cells were acquired from ATCC and THP1-Dual cells acquired from InvivoGen (San Diego, Calif.). Both cell types were cultured in 96-well plates for the duration of the assay. 50,000 A20 cells were plated 24 hours prior to dosing with RSL3, with a final DMSO concentration of 0.5%. 24 hours post-treatment, THP1-Dual cells (25,000 cells/well) were added to the A20 cells. 24 hours later, 30 μl of supernatant was mixed with either 200 μl QuantiBlue (InvivoGen, San Diego, Calif.) or 50 μl QuantiLuc and absorbance or luminescence was recorded on a Molecular Devices plate reader.
A20 lymphoma cells were treated with various doses (e.g. 0.002, 0.005, 0.014, 0.041, 0.123, 0.370, 1.111, 3.333 and 10 μM) of a GPX4 inhibitor (RSL3, ML162 or ML210) in the presence or absence of 1 μM Ferrostatin-1 for 24 hours. ML162 was purchased from Cayman Chemical Company Inc and resuspended in DMSO. ML210 was purchased from Sigma-Aldrich and resuspended in DMSO. A20 lymphoma cells were also treated with DMSO as a negative control. After treatment with DMSO or a GPX4 inhibitor for 24 hours, the A20 lymphoma cells were co-cultured with THP1-Dual cells for an additional 24 hours. Subsequently, the THP1 supernatant was assessed for NFKB reporter activity. A20 cells were acquired from ATCC and THP1-Dual cells were acquired from InvivoGen (San Diego, Calif.). Both cell types were cultured in 96-well plates for the duration of the assay.

[5] = test system: Caki-1 renal cell carcinoma cells; experiment: Viability of Caki-1 renal cell carcinoma cells after treatment; type: cell-based
[6] = test system: A20 B-cell leukemia cells; experiment: Viability of A20 B-cell leukemia / lymphoma cells after treatment; type: cell-based; conditions: for viability of A20 lymphoma cells, dose dependence: GPX4 inhibitor 0.002-10 μM, 24 hours, FIG. 10A, 11A, 12A
[7] = test system: NFKB reporter in THP1-Dual cells; experiment: NFKB reporter activity in THP1-Dual monocytes co-cultured with treated Caki-1 cells; type: cell-based, human
Method: Caki-1 renal cell carcinoma cells were treated with either control (DMSO) or various doses of Erastin, for 24 hours prior to co-culture with THP1-Dual cells for an additional 24 hours. Erastin was purchased from Selleckchem (Houston, Tex.) and dissolved in DMSO. Subsequently, the THP1 supernatants were assessed for NFKB or IRF reporter activity. Caki-1 cells were acquired from ATCC and THP1-Dual cells acquired from InvivoGen (San Diego, Calif.). Both cell types were cultured in 96-well plates for the duration of the assay. 7,500 Caki-1 cells were plated 24 hours prior to dosing with Erastin, with a final DMSO concentration of 0.5%. 24 hours post-treatment, THP1-Dual cells (25,000 cells/well) were added to the Caki-1 cells. 24 hours later, 30 μl of supernatant was mixed with either 200 μl QuantiBlue (InvivoGen) or 50 μl QuantiLuc and absorbance or luminescence was recorded on a Molecular Devices plate reader. Caki-1 renal cell carcinoma cells were treated with either control (DMSO) or various doses of RSL3, for 24 hours prior to co-culture with THP1-Dual cells for an additional 24 hours. RSL3 was purchased from Selleckchem and dissolved in DMSO. Subsequently, the THP1 supernatants were assessed for NFKB or IRF reporter activity. Caki-1 cells were acquired from ATCC and THP1-Dual cells acquired from InvivoGen (San Diego, Calif.). Both cell types were cultured in 96-well plates for the duration of the assay. 7,500 Caki-1 cells were plated 24 hours prior to dosing with RSL3, with a final DMSO concentration of 0.5%. 24 hours post-treatment, THP1-Dual cells (25,000 cells/well) were added to the Caki-1 cells. 24 hours later, 30 μl of supernatant was mixed with either 200 μl QuantiBlue (InvivoGen, San Diego, Calif.) or 50 μl QuantiLuc and absorbance or luminescence was recorded on a Molecular Devices plate reader. […] Subsequently, the THP1 supernatant was assessed for NFKB reporter activity. Caki-1 cells were acquired from ATCC and THP1-Dual cells acquired from InvivoGen (San Diego, Calif.). Both cell types were cultured in 96-well plates for the duration of the assay.

[8] = HT1080 cells treated with ferroptosis, apoptosis or necrosis inducer, FIG. 15B
[9] = ferroptosis, apoptosis, necrosis inducers compared, FIG. 15A
[10] = HT1080 cells treated 24 hours, co-culture 24 hours, vs DMSO, FIG. 1B, 1D

## CCOc1ccccc1-n1c(C(C)N2CCN(C(=O)COc3ccc(Cl)cc3)CC2)nc2ccccc2c1=O (centres unmarked) [Erastin]
[1]
  increase in NFkB activity relative to the baseline: 3.2 fold

## OO [Example H2O2, H2O2]
[2]; [8]
  NFKB signaling in THP1 monocytes: did not have this same effect
[3]; [9]
  viability of HT1080 cells: negatively affected the viability

## CCOC(=O)c1ccc(NC2CCCCC2)c(N)c1 [Ferrostatin-1]
[4]; A20 cells, 1 μM Ferrostatin-1 with RSL3, ML162 or ML210
  effect on GPX4 inhibitor-increased NFKB activity in THP1 cells: attenuated
[5]; 1 μM Ferrostatin with RSL3 or ML162, 24 hours
  effect on GPX4 inhibitor-decreased viability of Caki-1 renal carcinoma cells: attenuated
[6]; 1 μM Ferrostatin-1 with RSL3, ML162 or ML210, 24 hours
  effect on GPX4 inhibitor-decreased viability of A20 lymphoma cells: attenuated
[7]; Caki-1 cells, 1 μM Ferrostatin with RSL3 or ML162
  effect on GPX4 inhibitor-increased NFKB activity in THP1 cells: attenuated

## CC(C)Oc1ccc(C(=O)Cn2ccnc2)cc1-n1c(CN2CCN(C(=O)COc3ccc(Cl)cc3)CC2)nc2ccccc2c1=O [IKE, imidazole ketoerastin]
[2]; [10]
  NFKB signaling in THP1 monocytes: elicited NFKB signaling in THP1 monocytes
[1]
  increase in NFkB activity relative to the baseline: 2.4 fold
[3]; FIG. 1A, 1C
  viability of HT1080 cells: negatively affected the viability

## COc1ccc(N(C(=O)CCl)C(C(=O)NCCc2ccccc2)c2cccs2)cc1Cl (centres unmarked) [ML162]
[4]
  NFKB activity in THP1 cells, dose dependence: increased NFKB activity in THP1 cells in a dose dependent manner
[5]; GPX4 inhibitor various doses, 24 hours, FIG. 13A, 14A
  viability of Caki-1 renal carcinoma cells, dose dependence: decreased viability of the cells in a dose dependent manner
[6]
  viability of A20 lymphoma cells, dose dependence: decreased viability of the cells in a dose dependent manner
[7]; Caki-1 cells treated with RSL3 or ML162, FIG. 13B, 14B
  NFKB activity in THP1 cells, dose dependence: increased NFKB activity in THP1 cells in a dose dependent manner

## Cc1onc(C(=O)N2CCN(C(c3ccc(Cl)cc3)c3ccc(Cl)cc3)CC2)c1[N+](=O)[O-] [ML210]
[4]
  NFKB activity in THP1 cells, dose dependence: increased NFKB activity in THP1 cells in a dose dependent manner
[6]
  viability of A20 lymphoma cells, dose dependence: decreased viability of the cells in a dose dependent manner

## CC(C)Oc1ccc(CN2CCNCC2)cc1-n1c(CN2CCN(C(=O)COc3ccc(Cl)cc3)CC2)nc2ccccc2c1=O [PE, piperazine erastin]
[2]; [10]
  NFKB signaling in THP1 monocytes: elicited NFKB signaling in THP1 monocytes
[3]; FIG. 1A, 1C
  viability of HT1080 cells: negatively affected the viability

## CC(=O)O[C@@]12CO[C@@H]1C[C@H](O)[C@@]1(C)C(=O)[C@H](O)C3=C(C)[C@@H](OC(=O)[C@H](O)[C@@H](NC(=O)OC(C)(C)C)c4ccccc4)C[C@@](O)([C@@H](OC(=O)c4ccccc4)[C@H]21)C3(C)C [docetaxel, Docetaxel]
[2]; [8]
  NFKB signaling in THP1 monocytes: did not have this same effect
[3]; [9]
  viability of HT1080 cells: negatively affected the viability
